This is an account of results in patent EP4635969A1, “NOVEL GLUCOCORTICOID, METHOD FOR PREPARING SAME, AND USE THEREOF” (Tianjin Pharmaceutical Biotechnology Co., Ltd., priority 2022, dated 2024).

For series [1], the system named is inflammatory bowel disease model rats. Nature of the series: Inflammatory bowel disease experiment (TNBS model): macroscopic injury score of the colon. Format: in vivo. Conditions: colon, day 5 after TNBS; 2 mg/kg once a day (compounds intraintestinally, dexamethasone by gavage). On the procedure: Pharmacological Example 7: Pharmacodynamic Experiment on Inflammatory Bowel Disease in Rats
Test samples: The jet-milled compounds 23 and 34 were accurately weighed and prepared as 2 mg/mL clear solutions using anhydrous ethanol, respectively. The solutions were then diluted to 0.2 mg/mL with double-distilled water as the test samples, and stored at room temperature protected from light until use.
Animals in Groups 2 to 5 were subjected to trinitrobenzene sulfonic acid (TNBS) modeling as follows: A 5% TNBS aqueous solution was adjusted to 20 mg/mL TNBS (50% ethanol solution) with alcohol and water. After fasting for 24 h, the rats were anesthetized using an inhalation anesthesia machine. A silicone hose was inserted approximately 8 cm into the anus, and then TNBS was injected at a dose of 50 mg/kg. After injection, the rats were placed vertically for 1 min to prevent the backflow of TNBS solution. Then, the rats were placed into their cages for observation until the animals recovered.
Drug administration started one day before modeling, with one dose administered 1 hour before modeling and then once a day for 5 consecutive days. […] Table 14. Animal grouping and drug administration dosages
The experiment ended on day 5 after TNBS modeling. After isoflurane anesthesia, blood was collected from the hearts, and the rats were euthanized. The abdominal cavity was rapidly opened, and the macroscopic injury scoring of the colon in rats was performed based on the adhesion, obstruction, thickening of the colonic wall, colonic congestion, and necrosis in the colon area. After clearing the colonic contents, the colonic samples were longitudinally incised. The proximal 2/3 of the colon was excised, prepared into Swiss rolls, and stored in 4% neutral buffered formalin for histopathological analysis. Tissues were trimmed, dehydrated, paraffin-embedded, and sectioned (approximately 5 µm thickness), stained with hematoxylin-eosin (HE), and observed for pathological changes. Pathologists performed blind scoring of colonic lesions.
Quantitative indices were first subjected to Bartlett's test for homogeneity of variance. When the variance was homogeneous (P > 0.05), one-way analysis of variance (ANOVA) was used for a statistical test; if there was statistical significance (P ≤ 0.05), Dunnett's t-test (Dunnett method) was used to compare intergroup differences; if there was no statistical significance (P > 0.05), the statistical analysis was concluded. When the variance was heterogeneous (P ≤ 0.05), Kruskal-Wallis H rank-sum test (K-W method) was used for statistical analysis: if there was statistical significance (P ≤ 0.05), Mann-Whitney U test (M-W method) was further performed to compare intergroup differences; if there was no statistical significance (P > 0.05), the statistical analysis was concluded.

The test system of the next series is uveitis model rats. Briefly: Anti-uveitis pharmacodynamic experiment (LPS model): ocular pathological score. The series is classed as in vivo, male SD rats.
The test system of series [2] is intraocular pressure of guinea pigs. Nature of the series: Adverse reactions of continuous ocular administration: intraocular pressure. The series is classed as in vivo. On the procedure: Pharmacological Example 9: Experiment on Adverse Reactions of Continuous Ocular Administration in Guinea Pigs
Test samples: Compounds 17 and 23 were prepared as 5 mg/5 mL ophthalmic suspensions with reference to the formulation of Fluorometholone Eye Drops, and stored at room temperature protected from light until use.
Positive control drug: Fluorometholone Eye Drops (specification: 5 mL/5 mg; Santen Pharmaceutical (CHINA) Co., Ltd.; Lot No.: 1FM6545), Loteprednol Etabonate Eye Drops (specification 0.5% (5 mg/mL); Shandong Bausch & Lomb Freda Pharmaceutical Co., Ltd; Lot No. 386521), stored at room temperature protected from light until use.
Animals: 50 guinea pigs, conventional grade, with an equal number of males and females, weighing 300-350 g..
Animal grouping: After 5 days of adaptive feeding, the guinea pigs were randomly divided into 5 groups based on body weight. Group 1 was the blank control group, and 50 µL of normal saline was dropped into the eyes (bilateral) of the guinea pigs. Groups 2 to 5 were the fluorometholone group, loteprednol group, compound 17 group, and compound 23 group, respectively, and the corresponding drugs were dropped into the eyes (bilateral) of the guinea pigs. Table 19. Animal grouping and drug administration dosages for the experiment on adverse reactions of continuous ocular administration in guinea pigs
Intraocular pressure measurement time: The intraocular pressure of animals in each group was measured before administration and on days 7, 14, 21, and 28 post-administration.

The test system of series [3] is dry eye syndrome model New Zealand rabbits. Nature of the series: Dry eye syndrome experiment (benzalkonium chloride model): tear film break-up time. Format: in vivo, male New Zealand White rabbits.
Method: (§1) Positive control drug: Fluorometholone Eye Drops (specification: 5 mL/5 mg; Santen Pharmaceutical (CHINA) Co., Ltd.; Lot No.: 1FM6625) was used as the positive control drug and stored at room temperature protected from light until use.
Thirty male New Zealand White rabbits (conventional grade) were prepared. Six rabbits were randomly selected as the blank control group, and the remaining animals were administered 0.1% benzalkonium chloride to the left eye twice daily (morning and evening) , 10 µL/animal each time. On day 6 of modeling, tear secretion was measured using phenol red cotton threads to determine whether the model was successfully established. […] During the administration, all animals except the blank control group were administered 10 µL of 0.1% benzalkonium chloride to the left eye once daily to maintain dry eye symptoms..
• Test time: D3, D7, D15; • Test animals: All animals were tested before grouping; all enrolled surviving animals were tested after administration; • Test method: 1% Fluorescein sodium was dropped onto the inner side of the rabbit's lower eyelid, 10 µL/animal. The rabbit's eyes were closed and gently massaged to evenly distribute the fluorescein sodium on the eye surface. The rabbit's eyes were then sequentially placed under a slit lamp. The tear film break-up time was observed and recorded as the time from eye opening to the appearance of the first dark spot. If no dark spot appeared, the time was calculated as 60 seconds.
(§2) The normality and homogeneity of variance were tested by Levene's test. If there was no statistical significance (P > 0.05), one-way analysis of variance (ANOVA) was used for statistical analysis. If ANOVA was statistically significant (P ≤ 0.05), LSD test (parametric method) was used for comparative analysis. If the variance was heterogeneous (P ≤ 0.05), Kruskal-Wallis test was used. If the Kruskal-Wallis test was statistically significant (P ≤ 0.05), Dunnett's test (nonparametric method) was used for comparative analysis.
Series [4] shares this test system. Briefly: Dry eye syndrome experiment (benzalkonium chloride model): tear secretion test with phenol red cotton threads. Format: in vivo, male New Zealand White rabbits.
Series [5] has the same test system. Briefly: Dry eye syndrome experiment (benzalkonium chloride model): corneal fluorescein sodium staining. Format: in vivo, male New Zealand White rabbits.
Method: Pharmacological Example 6: Therapeutic Pharmacodynamic Experiment on Dry Eye Syndrome in New Zealand Rabbits
as §1
Thirty male New Zealand White rabbits (conventional grade) were prepared. Six rabbits were randomly selected as the blank control group, and the remaining animals were administered 0.1% benzalkonium chloride to the left eye twice daily (morning and evening) , 10 µL/animal each time. […] During the administration, all animals except the blank control group were administered 10 µL of 0.1% benzalkonium chloride to the left eye once daily to maintain dry eye symptoms..
• Test time: D3, D7, D15; • Test animals: All animals were tested before grouping; all enrolled surviving animals were tested after administration; • Test method: 2 µL of 1% Fluorescein sodium was dropped into the conjunctival sac. After 5 s, the excess fluorescein was rinsed with 0.9% normal saline. The conjunctival staining was observed under a slit lamp with cobalt blue diffused light.
as §2
[6] abbreviates: D3, 1 mg/mL, 50 µL/eye, 3 times a day for 14 days.
[7] abbreviates: D7, 1 mg/mL, 50 µL/eye, 3 times a day for 14 days.
Setting [8] is: D15, 1 mg/mL, 50 µL/eye, 3 times a day for 14 days.

Method for uveitis model rats: Pharmacodynamic Experiment on Anti-Uveitis
Positive control drug: Fluorometholone Eye Drops (specification: 5 mL/5 mg; Santen Pharmaceutical (CHINA) Co., Ltd.; Lot No. : J20180068) was used as the positive control drug and stored at room temperature protected from light until use.
Fifty male SD rats underwent a one-week adaptive feeding period. […] Groups 2 to 5 were used to establish rat uveitis models by single subcutaneous injection of 1 mg/kg LPS (Salmonella; Sigma; Lot No. 0000164114) into the plantar tissue of the hindpaw. Salmonella endotoxin was dissolved in normal saline to prepare an injection solution at a concentration of 2 mg/mL, which was injected subcutaneously at 1 mg/kg into the plantar tissue of one paw of the rats. Group 1 was injected with an equal volume of normal saline.
At the end of the experiment, photos of the rats' eyes were taken using a slit-lamp microscope, and the differences in ocular lesions of rats among groups were compared and analyzed.
Statistical analysis was performed using SPSS software. Measurement data were expressed as mean ± standard deviation. One-way ANOVA was used for intergroup comparisons. For data with homogeneous variance, LSD test was used; for data with heterogeneous variance, Dunnett-t test was used. A value of P < 0.05 was considered statistically significant.

In series [1], `C[C@@H]1C[C@H]2[C@@H]3CCC4=CC(=O)C=C[C@]4(C)[C@@]3(F)[C@@H](O)C[C@]2(C)[C@@]1(O)C(=O)CO` [Dexamethasone, reference compound] registered a Macroscopic injury score of 5.00 ± 0.66.

Consider `CC(=O)[C@@]1(O)CC[C@H]2[C@@H]3C[C@H](C)C4=CC(=O)C=C[C@]4(C)[C@@]3(F)[C@@H](O)C[C@@]21C` [Fluorometholone, reference compound], for which, in the series with uveitis model rats (1 mg/mL, 40 µL/eye, 3 times a day for 2 days), the Ocular pathological score is listed as 7.1 ± 0.7. Also, in the series on uveitis model rats (compared with the model group), the “ocular abnormalities / ocular pathological score” value is “significantly improved the ocular abnormalities and reduced the ocular pathological score”. Further, the “intraocular pressure after continuous ocular administration” value in series [2] is reported as “intraocular pressure elevation was detected on day 7”. The “Intraocular pressure of guinea pigs (mmHg) D0” value in series [2] (D0, before administration, 50 µL/eye (compounds and fluorometholone 1 mg/mL, loteprednol 5 mg/mL)) is 14.3 ± 1.5 mmHg. Moreover, the “Intraocular pressure of guinea pigs (mmHg) D7” value in series [2] (D7, 50 µL/eye (compounds and fluorometholone 1 mg/mL, loteprednol 5 mg/mL)) is recorded as 20.5 ± 3.3 mmHg. Moreover, in series [2] (D14, 50 µL/eye (compounds and fluorometholone 1 mg/mL, loteprednol 5 mg/mL)), the “Intraocular pressure of guinea pigs (mmHg) D14” value was 21.2 ± 2.1 mmHg. The “Intraocular pressure of guinea pigs (mmHg) D21” value in series [2] (D21, 50 µL/eye (compounds and fluorometholone 1 mg/mL, loteprednol 5 mg/mL)) came to 23.0 ± 3.1 mmHg. Also, the “Intraocular pressure of guinea pigs (mmHg) D28” value in series [2] (D28, 50 µL/eye (compounds and fluorometholone 1 mg/mL, loteprednol 5 mg/mL)) came to 22.5 ± 2.1 mmHg. The “Tear film break-up time (s) D3” value in series [3] (setting [6]) is reported as 43.17 ± 14.47 s. Also, the “Tear film break-up time (s) D7” value in series [3] (setting [7]) amounted to 47.33 ± 16.37 s. Besides, the “Tear film break-up time (s) D15” value in series [3] (setting [8]) was 51.33 ± 13.44" s. Also, in series [3] (compared with the model group), the “tear film break-up time” value was “significantly increased the tear film break-up time on day 15”. Also, the “Wetting length of phenol red cotton threads (mm) D0” value in series [4] (D0, 1 mg/mL, 50 µL/eye, 3 times a day for 14 days) stood at 26.35 ± 5.52 mm. Also, the “Wetting length of phenol red cotton threads (mm) D3” value in series [4] (setting [6]) is reported as 29.45 ± 5.48' mm. Further, the “Wetting length of phenol red cotton threads (mm) D7” value in series [4] (setting [7]) is 30.41 ± 5.29" mm. Moreover, the “Wetting length of phenol red cotton threads (mm) D15” value in series [4] (setting [8]) worked out at 32.26 ± 3.69 mm. Further, the tear secretion entry in series [4] (compared with the model group) is given as “significantly increased the tear secretion on day 15”. Also, in series [5] (setting [6]), the “Corneal fluorescein sodium staining score D3” value is listed as 1.67 ± 0.82. For the same molecule, the “Corneal fluorescein sodium staining score D7” value in series [5] (setting [7]) amounted to 1.17 ± 0.41. In series [5] (setting [8]), the “Corneal fluorescein sodium staining score D15” value is 1.0 ± 0. Also, the “inflammatory response on the ocular surface / ocular symptoms” value in series [5] (compared with the model group) is on record as “significantly inhibited the inflammatory response on the ocular surface on day 15”.
